{"source": "ChEMBL document CHEMBL5244260", "about": "“Aldose reductase and protein tyrosine phosphatase 1B inhibitors as a promising therapeutic approach for diabetes mellitus” (Eur J Med Chem, 2020)", "key": {"[1]": {"biological_target": "T1, Tyrosine-protein phosphatase non-receptor type 1 (Homo sapiens, UniProt P18031)", "T1 sequence (P18031 whole entry)": "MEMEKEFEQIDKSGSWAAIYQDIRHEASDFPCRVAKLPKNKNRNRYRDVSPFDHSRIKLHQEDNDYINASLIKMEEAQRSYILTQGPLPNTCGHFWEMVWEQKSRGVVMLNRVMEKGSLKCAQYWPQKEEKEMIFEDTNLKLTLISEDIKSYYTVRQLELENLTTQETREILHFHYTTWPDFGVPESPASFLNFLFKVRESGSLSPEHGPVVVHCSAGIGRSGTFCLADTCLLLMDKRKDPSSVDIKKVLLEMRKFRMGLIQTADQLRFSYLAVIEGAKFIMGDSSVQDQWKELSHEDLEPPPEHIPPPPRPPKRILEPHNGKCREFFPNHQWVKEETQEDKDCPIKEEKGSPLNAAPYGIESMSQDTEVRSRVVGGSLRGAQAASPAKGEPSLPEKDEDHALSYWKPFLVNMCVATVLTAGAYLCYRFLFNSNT", "assay": "Inhibition of human recombinant GST-tagged PTP1B (1 to 321 residues) expressed in Escherichia coli using pNPP as substrate by spectrophotometer assay"}, "[2]": {"biological_target": "T1, Tyrosine-protein phosphatase non-receptor type 1", "assay": "Inhibition of human recombinant PTP1B using pNPP as substrate incubated for 40 min"}, "[3]": {"assay": "Inhibition of ALR2 in rabbit lens using D,L-glyceraldehyde as substrate preincubated for 1 min in presence of NADPH followed by substrate addition and measured after 4 mins by spectrophotometric assay", "type": "tissue-based, Oryctolagus cuniculus"}, "[4]": {"biological_target": "T1, Tyrosine-protein phosphatase non-receptor type 1", "assay": "Inhibition of PTP1B (unknown origin) using DiFMUP as substrate incubated for 30 min by fluorescence based microplate reader assay"}, "[5]": {"biological_target": "T1, Tyrosine-protein phosphatase non-receptor type 1", "assay": "Inhibition of human PTP1B using pNPP as substrate incubated for 30 min by UV-Visible spectrophotometer assay"}, "[6]": {"assay": "Inhibition of ALR2 in Wistar rat lens using D,L-glyceraldehyde as substrate preincubated for 1 min in presence of NADPH followed by substrate addition and measured after 4 mins by spectrophotometric assay", "type": "tissue-based"}, "[7]": {"biological_target": "T2, Peroxisome proliferator-activated receptor gamma (Homo sapiens, UniProt P37231)", "T2 sequence (P37231 whole entry)": "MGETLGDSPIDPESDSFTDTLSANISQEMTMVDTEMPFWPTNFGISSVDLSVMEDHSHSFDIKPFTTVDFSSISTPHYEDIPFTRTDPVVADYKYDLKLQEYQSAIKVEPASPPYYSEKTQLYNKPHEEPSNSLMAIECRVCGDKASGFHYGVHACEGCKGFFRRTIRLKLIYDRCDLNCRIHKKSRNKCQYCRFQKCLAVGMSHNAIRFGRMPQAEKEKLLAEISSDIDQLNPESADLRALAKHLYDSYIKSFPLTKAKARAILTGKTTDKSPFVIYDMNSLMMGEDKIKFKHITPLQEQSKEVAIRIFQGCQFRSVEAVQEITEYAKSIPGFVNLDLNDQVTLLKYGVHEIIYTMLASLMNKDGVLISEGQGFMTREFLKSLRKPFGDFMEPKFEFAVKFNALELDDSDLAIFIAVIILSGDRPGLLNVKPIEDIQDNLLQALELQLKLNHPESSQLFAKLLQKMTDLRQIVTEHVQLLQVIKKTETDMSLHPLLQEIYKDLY", "assay": "Agonist activity at Gal4-PPARgamma (unknown origin) transfected in HCT-116 cells incubated for 24 hrs by luciferase reporter assay", "type": "cell-based"}, "Homo sapiens": {"organism": "Homo sapiens", "assay": "Selectivity ratio of IC50 for PTP1B (unknown origin) to IC50 for TCPTP (unknown origin)"}, "[8]": {"biological_target": "T1, Tyrosine-protein phosphatase non-receptor type 1", "assay": "Inhibition of PTP1B (unknown origin) using pNPP as substrate"}, "[9]": {"biological_target": "Aldo-keto reductase family 1 member B1 (Homo sapiens, UniProt P15121)", "assay": "Inhibition of ALR2 (unknown origin) using D,L-glyceraldehyde as substrate incubated for 10 mins in presence of NADPH by UV-spectrophotometric assay"}, "Mus musculus": {"tested_on": "Mus musculus", "assay": "Hypoglycemic activity in alloxan monohydrate induced diabetic model of BALB/c mouse assessed as decrease in glucose level at 10 mg/kg,po measured upto 8 hrs by glucometer", "type": "functional", "parameters": "scale not given: the % may be the effect or the level left"}, "Alpha-glucosidase": {"biological_target": "Alpha-glucosidase (Saccharomyces cerevisiae S288c, UniProt P53341+P38158+P07265)", "assay": "Inhibition of yeast alpha-glucosidase using PNP-G as substrate preincubated for 10 mins followed by substrate addition by spectrophotometer microplate reader assay", "type": "protein assay"}, "[10]": {"biological_target": "T1, Tyrosine-protein phosphatase non-receptor type 1", "assay": "Inhibition of human recombinant GST-tagged PTP1B (1 to 321 residues) expressed in Escherichia coli using pNPP as substrate preincubated for 10 mins followed by substrate addition and measured after 30 mins by microplate reader assay"}, "[11]": {"biological_target": "T3, Prostaglandin G/H synthase 2 (Homo sapiens, UniProt P35354)", "T3 sequence (P35354 whole entry)": "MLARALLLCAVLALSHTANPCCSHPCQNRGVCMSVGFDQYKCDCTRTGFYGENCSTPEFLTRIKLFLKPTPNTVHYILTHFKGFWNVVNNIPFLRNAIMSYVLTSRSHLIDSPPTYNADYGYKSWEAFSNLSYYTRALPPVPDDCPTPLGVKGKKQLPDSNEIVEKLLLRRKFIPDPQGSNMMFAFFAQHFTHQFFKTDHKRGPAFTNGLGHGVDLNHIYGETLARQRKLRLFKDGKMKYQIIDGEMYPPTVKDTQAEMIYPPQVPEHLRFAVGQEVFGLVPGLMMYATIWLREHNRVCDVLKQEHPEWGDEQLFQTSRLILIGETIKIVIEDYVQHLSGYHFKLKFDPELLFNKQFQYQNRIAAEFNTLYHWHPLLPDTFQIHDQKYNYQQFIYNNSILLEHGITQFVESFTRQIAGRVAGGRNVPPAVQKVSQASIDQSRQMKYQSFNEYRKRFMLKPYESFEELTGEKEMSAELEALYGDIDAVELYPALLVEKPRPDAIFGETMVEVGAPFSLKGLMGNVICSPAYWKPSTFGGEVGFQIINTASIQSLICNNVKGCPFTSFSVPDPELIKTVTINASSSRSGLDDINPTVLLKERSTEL", "assay": "Inhibition of COX-2 (unknown origin) by spectrophotometer assay"}}, "data": [{"smiles": "O=C1/C(=C/c2ccc(-c3ccccc3)cc2)NC(=S)N1c1ccccc1", "values": [{"measurement": "IC50", "setting": "[1]", "result": 2900, "unit": "nM"}]}, {"smiles": "O=C(NCCCN1C[C@@H](O)[C@H](O)[C@H]1CO)c1ccc([N+](=O)[O-])cc1", "values": [{"measurement": "IC50", "setting": "[2]", "result": 31, "unit": "µM"}]}, {"smiles": "O=C(O)Cn1ccc2ccccc21", "values": [{"measurement": "IC50", "setting": "[3]", "result": 7, "unit": "µM"}]}, {"smiles": "O=c1c2cc(O)c(O)cc2oc2cc(OCc3cccc(Cl)c3F)cc(O)c12", "values": [{"measurement": "IC50", "setting": "[4]", "result": 600, "unit": "nM"}]}, {"smiles": "C[C@@]12CCC[C@](C)(C(=O)O)[C@H]1CCc1cc(OCC(=O)Oc3ccccc3C(=O)O)ccc12", "values": [{"measurement": "IC50", "setting": "[5]", "result": 2900, "unit": "nM"}]}, {"smiles": "O=C(O)Cn1ccc2cc(OCc3ccccc3)ccc21", "values": [{"measurement": "IC50", "setting": "[6]", "result": 460, "unit": "nM"}, {"measurement": "EC50", "setting": "[7]", "result": "> 47.4", "unit": "µM"}]}, {"smiles": "O=C(c1ccccc1)C(Cc1ccc2cc(Br)c(C(F)(F)P(=O)(O)O)cc2c1)(c1ccc2cc(C(F)(F)P(=O)(O)O)c(Br)cc2c1)n1nnc2ccccc21", "note": "(centres undefined)", "values": [{"measurement": "Ratio IC50", "setting": "Homo sapiens", "result": 116}, {"measurement": "IC50", "setting": "[8]", "result": 5, "unit": "nM"}]}, {"smiles": "O=C1NC(=O)C2(CCCCC2)N1S(=O)(=O)c1ccc(Cl)s1", "values": [{"measurement": "IC50", "setting": "[9]", "result": 470, "unit": "nM"}, {"measurement": "Activity", "setting": "Mus musculus", "result": 79, "unit": "%"}]}, {"smiles": "CC(=O)c1cc2cc(-c3cccc(Cl)c3)oc2cc1O", "values": [{"measurement": "IC50", "setting": "Alpha-glucosidase", "result": 0.11, "unit": "µM"}, {"measurement": "IC50", "setting": "[10]", "result": 17.8, "unit": "µM"}, {"measurement": "IC50", "setting": "[11]", "result": 2810, "unit": "nM"}]}]}
